Consider 10 compounds from patent publication US11555820B2, “Nanohoop compounds for use in biotechnology and methods of making and using the same” (University of Oregon, priority 2017, dated 2023).

Data set [1] in a line: Photophysical properties of meta-substituted nanohoops (absorption, emission, extinction coefficient, quantum yield). The format is physicochemical. The following applies: for CPP ε × Φ (brightness): all-para [n]CPP with the same number of rings; for εAmax × ΦAmax (brightness) / εH→L: [n]mCPP; for Emission / Max Abs / ΦAmax (fluorescence quantum yield) / εAmax: dichloromethane; for ΦAmax (fluorescence quantum yield): room temperature; for εAmax: extinction coefficient at the absorbance maximum; for εH→L: extinction coefficient of the HOMO→LUMO transition. Here is the method: In the following examples, all glassware was flame dried and cooled under an inert atmosphere of nitrogen unless otherwise noted. Moisture sensitive reactions were carried out under nitrogen atmosphere using Schlenk and standard syringe/septa techniques. Tetrahydrofuran, dichloromethane, dimethylformamide and 1,4-dioxane were dried by filtration through alumina according to the methods describes by Grubbs. Silica column chromatography was conducted with Zeochem Zeoprep 60 Eco 40-63 μm silica gel. Automated flash chromatography was performed using a Biotage Isolera One. Recycling gel permeation chromatography (GPC) was performed using a Japan Analytical Industry LC-9101 preparative HPLC with JAIGEL-1H/JAIGEL-2H columns in series using CHCl3. Thin Layer Chromatography (TLC) was performed using Sorbent Technologies Silica Gel XHT TLC plates. Developed plates were visualized using UV light at wavelengths of 254 and 365 nm. ^1H NMR spectra were recorded at 500 MHz or 600 MHz on a Bruker Advance-II-HD NMR spectrometer. ^13C NMR spectra were recorded 150 MHz on a Bruker Advance-III-HD NMR spectrometer. All ^1H NMR spectra were taken in CDCl3 (referenced to TMS, δ 0.00 ppm) or DMSO-d6 (referenced to residual DMSO, δ 2.50 ppm). All ^13C NMR spectra were taken in CDCl3 (referenced to chloroform, δ 77.16 ppm) or DMSO-d6 (referenced to DMSO, δ 39.52 ppm). Absorbance and fluorescence spectra were obtained in a 1 cm Quartz cuvette with dichloromethane using an Agilent Cary 100 UV-Vis spectrometer and a Horiba Jobin Yvon Fluoromax-4 Fluorimeter. Fluorescent quantum yield was measured in dichloromethane at room temperature using a Hamamatsu absolute PL quantum yield measurement system. Electrochemical experiments were performed using a Biologic SP-50 potentiostat with a Ag wire reference electrode, Pt wire counter electrode, and glassy carbon working electrode under nitrogen atmosphere in 100 mM solutions of Bu4NPF6 in DCM with ferrocene as a reference. All reagents were obtained commercially unless otherwise noted. Compounds para-benzoquinone mono-methyl ketal, compound A, compound B, PPh3 Pd Gen III, and SPhos Pd Gen 1115 were prepared according to literature procedure.
In this example, the photophysical properties of nanohoop compound embodiments comprising meta-substitution (wherein the meta-substitution refers to the fact that one of the rings of the nanohoop skeleton is connected to other rings of the nanohoop skeleton via bonds that are meta-substituted relative to each other) was evaluated. It was determined that disrupting the conjugation of the nanohoop allows the HOMO→LUMO absorption and “turns on” the fluorescence in the smaller sizes (e.g., 6-membered and 5-membered nanohoops). The absorption and emission data as well as extinction coefficients and quantum yields were collected. […] Two absorption transitions can be seen in for the smaller sizes, but the second transition blue-shifts and overlaps with the absorption at 328 nm for [10]- and [12]mCPP. The extinction coefficient of the higher energy transition is larger than that of the lower energy transition in all cases (Table 10). […] Graphs showing the extinction coefficient determination of [5]mCPP at the absorbance maxima and HOMO→LUMO transition are provided in FIGS. 10A and 10B, respectively. Graphs showing the extinction coefficient determination of [6]mCPP at the absorbance maxima and HOMO→LUMO transition are provided in FIGS. 11A and 11B, respectively. Graphs showing the extinction coefficient determination of [7]mCPP at the absorbance maxima and HOMO→LUMO transition are provided in FIGS. 12A and 12B, respectively. Graphs showing the extinction coefficient determination of [8]mCPP at the absorbance maxima and HOMO→LUMO transition are provided in FIGS. 13A and 13B, respectively. Graphs showing the extinction coefficient determination of [10]mCPP and [12]mCPP at the absorbance maxima are provided in FIGS. 14 and 15, respectively. […]

For data set [2] the following is noted: all-para [n]CPP, n≤7; cited from earlier work.
The next data set has as its system HeLa cells. As to the kind of experiment: Colorimetric CCK-8 viability assay of HeLa cells. The format is cell-based. The settings on record: [12]CPP 0.25-1 uM, [8]CPP 0.5-2 uM, 5 wt percent Pluronic F108 in DMEM. The procedure: HeLa cells were treated with varying concentrations of [8]CPP and [12]CPP in the presence of 5 wt percent Pluronic F108 in DMEM, and their viability was measured using a colorimetric CCK-8 assay (purchased from Dojindo and performed following the assay instructions). Briefly, the cells were treated with the nanohoop compound and the tetrazolium salt WST-8 at each concentration for 2 hours at 37 degrees Celsius, and the optical density of the cells was subsequently measured at 450 nm. The viability of cells treated with the [12]CPP and [8]CPP compounds is illustrated in FIGS. 1 and 2, respectively.
In this example, HeLa cells were treated with the disulfonated[8]CPP nanohoop Compound 1 at concentrations of 5 uM, 10 uM, 25 uM, 50 uM and 100 uM and their viability was measured using a standard colorimetric CCK-8 assay, as described above for Example 1. The percentage of living cells remaining after exposure to various concentrations of Compound 1 is illustrated in the graph shown in FIG. 3.
On the technique in general: Formazan colour is commonly taken as a measure of viable cells.

Turning to `c1cc2ccc1=c1ccc(cc1)=c1ccc(cc1)=c1ccc(cc1)=c1ccc=2cc1` [[5]CPP, reference compound], the “absorption (extinction coefficient) compared with [5]mCPP” value in data set [1] (all-para [5]CPP, HOMO→LUMO transition) turned out to be 450 M⁻¹ cm⁻¹. The “CPP ε × Φ (brightness)” value in data set [1] was 0. Further, the “fluorescence of para-substituted CPP (in words)” value (from here on “fluorescence … (in words)”) in data set [2] is “no fluorescence”.
On to `c1cc2ccc1=c1ccc(cc1)=c1ccc(cc1)=c1ccc(cc1)=c1ccc(cc1)=c1ccc=2cc1` [[6]CPP, reference compound], for which, in data set [1], the “CPP ε × Φ (brightness)” value came out at 0. In addition, the “fluorescence … (in words)” value in data set [2] was “no fluorescence”.
Take `O[C@]12C=C[C@](O)(C=C1)c1ccc(cc1)[C@]1(O)C=C[C@@](O)(C=C1)c1ccc(cc1)-c1cccc(c1)[C@@H]1C=CC2=CC1` [[6]mCPP]: the “H→L Absorbance” value in data set [1] (HOMO→LUMO transition) stood at 410 nm. In data set [1], the “εAmax × ΦAmax (brightness)” value is 1.2 × 10^4, the Emission is recorded as 510 nm, the “Max Abs” value came to 328 nm and the “ΦAmax (fluorescence quantum yield)” value is 0.224. Moreover, in data set [1], the εAmax was 5.4 × 10^4 ± 0.3 M^−1cm^−1 and the εH→L was 9.4 × 10^3 ± 0.5 M^−1cm^−1.
Take `c1cc2ccc1-c1ccc(cc1)-c1ccc(cc1)-c1ccc(cc1)-c1ccc(cc1)-c1ccc(cc1)-c1ccc-2cc1` [[7]CPP, reference compound]: in data set [1], the “CPP ε × Φ (brightness)” value is 4.8 × 10^2. The “fluorescence … (in words)” value in data set [2] is “only weak fluorescence”.
Consider `O[C@]12C=C[C@](O)(CC1)c1ccc(cc1)-c1ccc(cc1)[C@]1(O)C=C[C@@H](C=C1)c1ccc(cc1)-c1cccc(c1)-c1ccc2cc1` [[7]mCPP], for which, in data set [1] (HOMO→LUMO transition), the “H→L Absorbance” value is recorded as 394 nm. In data set [1], the “εAmax × ΦAmax (brightness)” value is reported as 2.3 × 10^4, the Emission turned out to be 491 nm, the “Max Abs” value turned out to be 328 nm and the “ΦAmax (fluorescence quantum yield)” value stood at 0.450. Besides, in data set [1], the εAmax is on record as 5.1 × 10^4 ± 0.09 M^−1cm^−1 and the εH→L is 9.9 × 10^3 ± 0.08 M^−1cm^−1.
Regarding `c1cc2ccc1=c1ccc(cc1)=c1ccc(cc1)=c1ccc(cc1)=c1ccc(cc1)=c1ccc(cc1)=c1ccc(cc1)=c1ccc=2cc1` [[8]CPP, reference compound], in data set [1], the “CPP ε × Φ (brightness)” value is 1.0 × 10^4. For the same compound, the “toxicity to HeLa cells (in words)” value in the data set on HeLa cells is given as “not toxic”.
As for `CO[C@]12C=C[C@](O)(C=C1)c1ccc(cc1)-c1cccc(c1)-c1ccc(cc1)[C@]1(O)C=C[C@@](OC)(C=C1)C1C=CC(=CC1)[C@]1(O)C=C[C@@](O)(CC1)[C@H]1C=CC2=CC1` [[8]mCPP], the “H→L Absorbance” value in data set [1] (HOMO→LUMO transition) is 376 nm. In addition, in data set [1], the “εAmax × ΦAmax (brightness)” value was 3.7 × 10^4, the Emission is recorded as 484 nm, the “Max Abs” value is 326 nm and the “ΦAmax (fluorescence quantum yield)” value is reported as 0.595. In data set [1], the εAmax is given as 6.2 × 10^4 ± 0.9 M^−1cm^−1 and the εH→L is recorded as 1.4 × 10^4 ± 0.1 M^−1cm^−1.
Take `c1cc2ccc1-c1ccc(cc1)-c1ccc(cc1)-c1ccc(cc1)-c1ccc(cc1)-c1ccc(cc1)-c1ccc(cc1)-c1ccc(cc1)-c1ccc(cc1)-c1ccc-2cc1` [[10]CPP, reference compound]: the “CPP ε × Φ (brightness)” value in data set [1] is 8.5 × 10^4.
For the compound `c1cc2cc(c1)-c1ccc(cc1)-c1ccc(cc1)-c1ccc(cc1)-c1ccc(cc1)-c1ccc(cc1)-c1ccc(cc1)-c1ccc(cc1)-c1ccc(cc1)-c1ccc-2cc1` [[10]mCPP], in data set [1], the “εAmax × ΦAmax (brightness)” value is listed as 5.2 × 10^4, the Emission came to 456 nm, the “Max Abs” value turned out to be 328 nm and the “ΦAmax (fluorescence quantum yield)” value was 0.726. Further, the εAmax in data set [1] is recorded as 7.1 × 10^4 ± 0.2 M^−1cm^−1. Besides, the “overall brightness versus commercial fluorophores (in words)” value in data set [1] (compared with DAPI and Rhodamine 110) is “brighter than many commercial fluorophores”.
Take `c1cc2ccc1-c1ccc(cc1)-c1ccc(cc1)-c1ccc(cc1)-c1ccc(cc1)-c1ccc(cc1)-c1ccc(cc1)-c1ccc(cc1)-c1ccc(cc1)-c1ccc(cc1)-c1ccc(cc1)-c1ccc-2cc1` [[12]CPP, reference compound]: in data set [1], the “CPP ε × Φ (brightness)” value is on record as 1.4 × 10^5. Also, the “toxicity to HeLa cells (in words)” value in the data set with HeLa cells was “not toxic”.
